CC(C)[C@H](NC(=O)OCc1ccccc1)C(=O)N[C@@H](Cc1cccs1)C(=O)N[C@H](C=O)C[C@@H]1CCNC1=O [MPI15]
Solubility in DMSO: insoluble

Reference: paper PMC9235293 (European Journal of Medicinal Chemistry, 2022)
